Measured values as given in patent US20240052423A1, “METHODS OF IDENTIFYING A TUMOR THAT IS SENSITIVE TO TREATMENT WITH TALAZOPARIB AND METHODS OF TREATMENT THEREOF” (PFIZER INC., priority 2020, published 2024).

Experiments:
Assay type in all cases: in vivo, human
[1] = tested on: other solid tumors with a mutation in homologous recombination; experiment: Phase II clinical trial of talazoparib, best response by RECIST v.1.1, non-breast cancer cohort; settings: Non-Breast Cancer (N = 7), 1 mg orally daily
Experimental: (§1) A phase II clinical trial of the PARP inhibitor talazoparib in BRCA1 and BRCA2 wild-type patients with HER2-negative advanced breast cancer or other solid tumors with a mutation in homologous recombination was conducted as shown in FIG. 1. Eligible patients were adults (≥18 years old) with HER2-negative advanced or metastatic breast cancer that had progressed on at least 1 prior line of therapy for metastatic disease. Eligible patients also included adults (≥18 years old) with advanced or metastatic solid tumors beyond breast cancer that had progressed on at least one prior line of therapy. Patients were required to have no pathogenic mutations in either BRCA1 or BRCA2 genes on germline or somatic testing. They were required to have a pathogenic or likely pathogenic mutation in a HR-pathway associated gene detected on multiplex germline or somatic testing. These genes include: PALB2, CHEK2, ATM, NBN, BARD1, BRIP1, RAD50, RAD51C, RAD51D, MRE11, ATR, PTEN, Fanconi anemia complementation group of genes (FANCA, FANCC, FANCD2, FANCE, FANCF, FANCG, FANCL), plus other HR-related genes at the discretion of the primary investigators. Measurable disease by RECIST version 1.1 was required. There was no upper limit on the number of prior systemic therapies allowed prior to study entry. Patients were not allowed to have progressed during therapy with a platinum agent or within 8 weeks of discontinuing a platinum agent. Subjects were required to have an Eastern Cooperative Oncology Group (ECOG) performance status (PS) of 0-2 and adequate organ function based on screening laboratory values of liver, renal and hematologic parameters. The ability to take oral medications was required. Sexually active patients of childbearing potential were mandated to use contraception and females of childbearing age were tested for pregnancy at screening; females were not permitted to participate if pregnant or nursing and were tested for pregnancy at screening. Patients were excluded if they previously took any PARP inhibitor, had taken any anti-cancer therapy within 21-days of study entry, received radiation therapy within 14 days of study entry, had active brain metastasis requiring treatment or leptomeningeal disease. Patients with human immunodeficiency virus infection or active hepatitis C or hepatitis B viral infections were excluded. Also, patients requiring prolonged hospitalization, major surgery or receiving other investigational agent within 21 days prior to study entry were excluded. Additional key exclusion criteria were: other medical co-morbidity likely to interfere with study participation eg. infection grade ≥3 CTCAE version 4, or requiring parenteral antibiotics within 7 days, or known hypersensitivity to talazoparib. Talazoparib was administered at 1 mg orally daily continuously, taken whole, at approximately the same time each day. Treatment cycles lasted 28 days. Patients were evaluated on day 1 of each treatment cycle by physician assessment including medical history, physical examination, laboratory values (complete blood count (CBC) and comprehensive metabolic panel), vital signs, ECOG PS assessment and urine pregnancy test (for women of childbearing age only). Day 14 physician assessment was required for the first cycle and CBCs were required weekly for the first cycle, then prior to start of each subsequent cycle. Treatment continued until disease progressed or unacceptable toxicity. Safety was assessed at each physician visit and monitored continuously by laboratory values, patient reporting and patient diary. Adverse events (AEs) and severe AEs (SAEs) were graded according to CTCAE version 4.0. SAEs grade ≥3 were reported to the Data Safety Monitoring Committee. Tumor evaluation was performed at baseline and after every two cycles and responses were assessed according to RECIST version 1.1. After six cycles, tumor evaluations were allowed every 3 cycles per physician discretion. […]

[2] = tested on: HER2-negative advanced breast cancer or other solid tumors with a mutation in homologous recombination; experiment: Phase II clinical trial of talazoparib, best response by RECIST v.1.1, combined cohorts
Experimental: as §1

[3] = tested on: HER2-negative advanced or metastatic breast cancer with a non-BRCA1/2 mutation in homologous recombination; experiment: Phase II clinical trial of talazoparib, best response by RECIST v.1.1, breast cancer cohort; settings: Breast Cancer (N = 13), 1 mg orally daily
Experimental: as §1

[4] = Combined (N = 20), 1 mg orally daily, RECIST v.1.1

Cn1ncnc1[C@H]1c2n[nH]c(=O)c3cc(F)cc(c23)N[C@@H]1c1ccc(F)cc1 [talazoparib, (8S,9R)-5-fluoro-8-(4-fluorophenyl)-9-(1-methyl-1H-1,2,4-triazol-5-yl)-8,9-dihydro-2H-pyrido[4,3,2-de]phthalazin-3(7H)-one]
CBR (CR + PR + SD ≥ 6 mos) [1]: 2 (29%); n (%)
ORR (CR + PR) ([1]; 95% CI: 0-41%): 0 (0%); n (%)
Complete Response (CR), response rate ([1]; RECIST v.1.1): 0 (0%) n (%)
Partial Response (PR), response rate ([1]; RECIST v.1.1): 0 (0%) n (%)
Progressive Disease (PD), response rate ([1]; RECIST v.1.1): 3 (43%) n (%)
Stable Disease (SD), response rate ([1]; RECIST v.1.1): 4 (57%) n (%)
ORR (CR + PR) ([2]; Combined (N = 20), 1 mg orally daily, 95% CI: 6-44%): 4 (20%); n (%)
CBR (CR + PR + SD ≥ 6 mos) ([2]; Combined (N = 20), 1 mg orally daily, 95% CI: 23-68%): 9 (45%); n (%)
Complete Response (CR), response rate [2, 4]: 0 (0%) n (%)
Partial Response (PR), response rate [2, 4]: 4 (20%) n (%)
Progressive Disease (PD), response rate [2, 4]: 6 (30%) n (%)
Stable Disease (SD), response rate [2, 4]: 10 (50%) n (%)
partial responses observed in the first stage ([2]; first stage of 10 patients): two
ORR (CR + PR) ([3]; 95% CI: 9-61%): 4 (31%); n (%)
CBR (CR + PR + SD ≥ 6 mos) ([3]; 95% CI: 21-81%): 7 (54%); n (%)
Complete Response (CR), response rate ([3]; RECIST v.1.1): 0 (0%) n (%)
Partial Response (PR), response rate ([3]; RECIST v.1.1): 4 (31%) n (%)
Progressive Disease (PD), response rate ([3]; RECIST v.1.1): 3 (23%) n (%)
Stable Disease (SD), response rate ([3]; RECIST v.1.1): 6 (46%) n (%)
